From patent US20240165112A1, “THERAPY FOR THE TREATMENT OF CANCER” (Bristol-Myers Squibb Company, priority 2022, published 2024)

Experiments:
Experiment in all cases: 3D clonogenic assay in patient derived organoids
Format in all cases: cell-based, human
[1] = tested on: LXFA644 organoid, NSCLC (adenocarcinoma subtype); details: for Combination activity 5 μM Compound 1 (cAUC % reduction): chemotherapy dose titration + 5 μM Compound 1 vs chemotherapy alone; for Combination activity 20 μM Compound 1 (cAUC % reduction): chemotherapy dose titration + 20 μM Compound 1 vs chemotherapy alone
Method: (§1) Five tumor cell lines (4T1.2, A549, EMT6, NCI-H460, and HT29) were treated with a range of paclitaxel or 5-FU concentrations in the presence of dimethlylsulfoxide (DMSO), 5 μM Compound 1, or 20 μM Compound 1. Cells were imaged 4 days after treatment and percent confluence was assessed by image quantification. EC50 values for cell confluence were used to assess chemotherapy potency. Eleven patient-derived tumor organoids (MAXFTN449, MAXFTN2990, PAXF1657, PAXF2131, CXF1256, CXF2129, CXF2061, LXFE2478, LXFE690, LXFA677, LXFA644) were seeded in a 3D matrix and treated with a range of paclitaxel, 5-FU, SN38, Gemcitabine, oxaliplatin, and carboplatin concentrations in the presence of DMSO, 5 μM Compound 1, or 20 μM Compound 1. After 8 to 13 days in culture, colonies were stained, imaged, and counted. A dose response curve was generated for chemotherapy alone or chemotherapy in combination with 5 or 20 μM Compound 1. Combination activity was defined as a percentage of the area under the chemotherapy dose response curve (cAUC) for Compound 1 combination groups compared to the cAUC of chemotherapy alone.
(§2) For combination experiments, working stock solutions of all compounds were prepared in DMSO at concentrations of 660-fold the highest test concentration used and stored at −20° C. Platin compounds were prepared freshly on each treatment day. On each day of an experiment, an aliquot of the working stock solutions was used and stored at room temperature prior to and during treatment. First, 1:2 dilutions of 660-fold concentrated working stocks were prepared in DMSO (in case of monotherapy controls), or equal amounts of the compound working stocks were mixed (in case of drug combinations). Then, different dilutions of these 330-fold concentrated solutions were prepared in DMSO to give an 8×2 matrix combination layout with conditions. The DMSO dilutions were further diluted […] into cell culture medium (IMDM, supplemented with 20% (v/v) fetal bovine serum, and 50 μg/mL gentamicin) in an intermediate dilution plate. Finally, 10 μL taken from the intermediate dilution plate were transferred to 140 μL of cells and medium per well of the final assay plate. Thus, the DMSO dilutions used for the mono- and the combination-treatment were diluted 1:660, and the DMSO concentration in the assay was […].
(§3) Tumors were passaged as subcutaneous xenografts in NMRI nu/nu mice. At a tumor volume of 400 to 1000 mm^3, tumor-bearing mice were euthanized, and tumors were collected under sterile conditions without delay. Tumors were mechanically disaggregated and subsequently incubated with an enzyme cocktail consisting of collagenase type IV (41 U/mL), DNase I (125 U/mL), hyaluronidase type III (100 U/mL), and dispase II (1 U/mL) in RPMI 1640 medium at 37° C. for 60 to 120 minutes. Cells were passed through sieves of 100 μm and 40 μm mesh size, and washed with RPMI 1640 medium. The percentage of viable cells was determined in a Neubauer-hemocytometer using trypan blue exclusion. Aliquots of the cells were frozen down and stored in liquid nitrogen vapor phase. On each day of an experiment, a frozen aliquot of tumor cells was thawed and used for preparation of assay plates.
(§4) The clonogenic assay was carried out in a 96 well plate format using ultra low attachment plates. For each test, plates were prepared as follows: each test well contained a layer of semi-solid medium with tumor cells (50 μL), and a second layer of medium supernatant with or without test compound (100 μL). The cell layer consisted of […] to 12.5×10^3 tumor cells per well, which were seeded in 50 μL/well cell culture medium (IMDM, supplemented with 20% (v/v) fetal bovine serum, 50 μg/mL gentamicin, and 0.4% (w/v) agar). After 24 hours, the soft-agar layer was covered with 90 μL of the same culture medium without agar, and 10 μL of control medium or test compound after serial dilution in DMSO for the duration of the experiment (continuous exposure, 100 μL drug overlay).

[2] = tested on: LXFE2478 organoid, NSCLC (squamous subtype); details: for Combination activity 5 μM Compound 1 (cAUC % reduction): chemotherapy dose titration + 5 μM Compound 1 vs chemotherapy alone; for Combination activity 20 μM Compound 1 (cAUC % reduction): chemotherapy dose titration + 20 μM Compound 1 vs chemotherapy alone
Method: as §1, §2, §3, §4

[3] = tested on: LXFE690 organoid, NSCLC (squamous subtype); details: for Combination activity 5 μM Compound 1 (cAUC % reduction): chemotherapy dose titration + 5 μM Compound 1 vs chemotherapy alone; for Combination activity 20 μM Compound 1 (cAUC % reduction): chemotherapy dose titration + 20 μM Compound 1 vs chemotherapy alone
Method: as §1, §2, §3, §4

[4] = tested on: LXFA677 organoid, NSCLC (adenocarcinoma subtype); details: for Combination activity 5 μM Compound 1 (cAUC % reduction): chemotherapy dose titration + 5 μM Compound 1 vs chemotherapy alone; for Combination activity 20 μM Compound 1 (cAUC % reduction): chemotherapy dose titration + 20 μM Compound 1 vs chemotherapy alone
Method: as §1, §2, §3, §4

[5] = tested on: CXF2129 organoid, colon cancer
Method: as §1, §2, §3, §4

[6] = tested on: CXF1256 organoid, colon cancer
Method: as §1, §2, §3, §4

[7] = tested on: CXF2061 organoid, colon cancer
Method: as §1, §2, §3, §4

[8] = chemotherapy dose titration + 5 μM Compound 1 vs chemotherapy alone
[9] = chemotherapy dose titration + 20 μM Compound 1 vs chemotherapy alone

Compound: Nc1ccn([C@@H]2O[C@H](CO)[C@@H](O)C2(F)F)c(=O)n1 [Gemcitabine, gemcitabine]
- Combination activity 5 μM Compound 1 (cAUC % reduction) [1]: 3%
- Combination activity 20 μM Compound 1 (cAUC % reduction) [1]: 20%
- Combination activity 5 μM Compound 1 (cAUC % reduction) [2]: 41%
- Combination activity 5 μM Compound 1 (cAUC % reduction) ([2]; listed as gemcitabine): 41%
- Combination activity 20 μM Compound 1 (cAUC % reduction) [2]: 30%
- Combination activity 5 μM Compound 1 (cAUC % reduction) [3]: 59%
- Combination activity 20 μM Compound 1 (cAUC % reduction) [3]: 61%
- Combination activity 5 μM Compound 1 (cAUC % reduction) [4]: 7%
- Combination activity 20 μM Compound 1 (cAUC % reduction) [4]: 15%

Compound: N.N.O=C([O-])C1(C(=O)[O-])CCC1.[Pt+2] [Carboplatin, carboplatin]
- Combination activity 5 μM Compound 1 (cAUC % reduction) [1]: 5%
- Combination activity 5 μM Compound 1 (cAUC % reduction) ([1]; listed as carboplatin): 50%
- Combination activity 20 μM Compound 1 (cAUC % reduction) [1]: 19%
- Combination activity 5 μM Compound 1 (cAUC % reduction) [2]: 27%
- Combination activity 20 μM Compound 1 (cAUC % reduction) [2]: 3%
- Combination activity 5 μM Compound 1 (cAUC % reduction) [3]: 73%
- Combination activity 20 μM Compound 1 (cAUC % reduction) [3]: 80%
- Combination activity 5 μM Compound 1 (cAUC % reduction) [4]: 7%
- Combination activity 20 μM Compound 1 (cAUC % reduction) [4]: 14%

Compound: O=C1[O][Pt]2([NH][C@@H]3CCCC[C@H]3[NH]2)[O]C1=O [Oxaliplatin, oxaliplatin]
- Combination activity 5 μM Compound 1 (cAUC % reduction) [5, 8]: 37%
- Combination activity 20 μM Compound 1 (cAUC % reduction) [5, 9]: 9%
- Combination activity 5 μM Compound 1 (cAUC % reduction) [6, 8]: 70%
- Combination activity 20 μM Compound 1 (cAUC % reduction) [6, 9]: 63%
- Combination activity 5 μM Compound 1 (cAUC % reduction) [7, 8]: 13%
- Combination activity 20 μM Compound 1 (cAUC % reduction) [7, 9]: −18%
